Experimental data: patent US12201633B2, “Compounds and methods for treatment of visceral pain” (Arena Pharmaceuticals, Inc., priority 2017, dated 2025)

Assays:
[1] = molecular target: T1, hCB1 (Homo sapiens, UniProt P21554); experiment: PathHunter β-arrestin assay, CB1
[2] = molecular target: T1, hCB1; experiment: HTRF assay for direct cAMP measurement, CB1; type: cell-based; set-up: 93-0164 (CHO-K1 EA-Arrestin parental line); host or cells: CHO-K1 EA-Arrestin, clone #3
Description: Compounds were also screened for agonists and inverse agonists of the CB1 receptor (e.g., human CB1 receptor) using HTRF® assay for direct cAMP measurement (Gabriel et al., ASSAY and Drug Development Technologies, 1:291-303, 2003) in recombinant CHO-K1 cells stably transfected with the CB1 receptor. […] An agonist of the CB1 receptor was detected in the HTRF® assay for direct cAMP measurement as a compound which decreased cAMP concentration. An inverse agonist of the CB1 receptor was detected in the HTRF® assay for direct cAMP measurement as a compound which increased cAMP concentration. The HTRF® assay also was used to determine EC50 values for CB1 receptor agonists and inverse agonists.
Principle of the assay: The HTRF® assay kit was purchased from Cisbio-US, Inc. (Bedford, MA; Catalog #62AM4PEC). The HTRF® assay supported by the kit is a competitive immunoassay between endogenous cAMP produced by the CHO-K1 cells and tracer cAMP labeled with the dye d2. The tracer binding is visualized by a monoclonal anti-cAMP antibody labeled with Cryptate. The specific signal (i.e., fluorescence resonance energy transfer, FRET) is inversely proportional to the concentration of unlabeled cAMP in the standard or sample.
The fluorescence ratio of the samples (test compound or compound buffer) was calculated and used to deduce respective cAMP concentrations by reference to the cAMP standard curve. […]

[3] = molecular target: T2, human CB2 receptor (Homo sapiens, UniProt P34972); experiment: HTRF assay for direct cAMP measurement, CB2; type: cell-based; set-up: 93-0164 (CHO-K1 EA-Arrestin parental line); host or cells: CHO-K1 EA-Arrestin, clone #61
T2 sequence (P34972 whole entry): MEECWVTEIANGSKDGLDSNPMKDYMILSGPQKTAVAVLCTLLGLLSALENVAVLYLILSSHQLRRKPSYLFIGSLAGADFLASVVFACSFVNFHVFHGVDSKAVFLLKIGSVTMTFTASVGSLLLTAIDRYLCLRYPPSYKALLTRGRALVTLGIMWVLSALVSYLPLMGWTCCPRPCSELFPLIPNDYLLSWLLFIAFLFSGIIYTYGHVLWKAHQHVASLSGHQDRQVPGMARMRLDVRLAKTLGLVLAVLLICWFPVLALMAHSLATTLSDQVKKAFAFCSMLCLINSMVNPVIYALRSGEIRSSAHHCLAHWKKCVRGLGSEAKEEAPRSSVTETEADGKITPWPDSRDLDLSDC

[4] = molecular target: T2, human CB2 receptor; experiment: PathHunter β-arrestin assay, CB2
[5] = test system: male Sprague Dawley rats, paclitaxel-induced allodynia; experiment: Paclitaxel-induced allodynia; type: in vivo, rat; details: 10 mg/kg orally, FIG. 3
Protocol: Animals: Male Sprague Dawley rats [200-250 g] (Harlan Laboratories Inc., Livermore, CA) were housed three per cage and maintained in a humidity-controlled (40-60%) and temperature-controlled (68-72° F.) facility on a 12 h:12 h light/dark cycle (lights on at 6:30 am) with free access to food (Harlan Teklad, Orange, CA, Rodent Diet 8604) and water. Rats were allowed one week of habituation to the animal facility before starting treatment.
Induction of Allodynia: Rats were treated intraperitoneally, with 2 mg/kg of paclitaxel (Sigma Aldrich, Saint Louis, MO) in 10% Cremophor vehicle (500 μL) on days 0, 2, 4, and 6.
Clinical scoring: Tactile allodynia was tested using von Frey filaments. Briefly, the von Frey assay was performed using the standardized up down method with von Frey filaments, that determine the tactile sensitivity of the paw. By applying the increasingly or decreasingly thicker filaments to the paw in a logarithmic scale of actual force, a linear scale of perceived intensity is determined.
Drug treatment: Eight days after the start of paclitaxel dosing, a baseline measurement (von Frey assay) was performed prior to dosing of compounds. […] As a positive control, rats were dosed intraperitoneally with 100 mg/kg gabapentin in water. The dosing volume for oral and peritoneal treatment was 500 μL. […]

[6] = test system: male Sprague Dawley rats, FCA-induced hyperalgesia; experiment: FCA-induced hyperalgesia model of inflammatory pain; type: in vivo, rat; details: 0.1, 1, 3, 10 and 30 mg/kg orally, 1-hour post dosing, vehicle PEG400; FIG. 1
Protocol: Animal info: Male Sprague Dawley rats from Harlan (200-225 g when received) were used. Upon arrival, rats were housed 4 per cage in shoe-box polycarbonate cages with wire tops, wood chip bedding and suspended food and water bottles. Animals were acclimated for 5-7 days prior to being injected with Freund's complete adjuvant (FCA) (Sigma; catalog #5881).
Experimental procedure: 2 days (48 h) before testing compounds, baseline readings of all rats were taken right before FCA injection. Rats were then injected with 50 μL FCA containing 1 mg/mL Mtb (Mycobacterium tuberculosis) in right hind footpad under inhalation anesthesia (isoflurane). 48 hours after FCA injection, readings were taken as pre-dosing baseline and then rats were dosed orally with 0.5 mL of vehicle or compound (0.5 mL per 250 g rat). Readings were taken again at 1-hour post dosing. All readings were taken with an Analgesy-Meter (Ugo Basile) which measures mechanical hyperalgesia via paw pressure.
Clinical scoring: FCA-induced hyperalgesia was tested with an Analgesy-Meter. Briefly, the Analgesy Meter applied an increasing pressure to the right hind paw. The paw withdrawal threshold was the pressure leading to withdrawal.
Meanwhile a group of rats were dosed orally with 50 mg/kg of Diclofenac as a positive control. Readings were taken again at 1-hour post dosing. Dosing volume was 500 μL per 250 g rat.

[7] = test system: male Sprague Dawley rats, MIA model of osteoarthritis; experiment: Monosodium iodoacetate (MIA) model of osteoarthritis pain; type: in vivo, rat; details: 3, 10 and 30 mg/kg orally, one hour after dosing, vehicle PEG400; FIG. 2
Description: Injection of monosodium iodoacetate (MIA) into a joint (Kalbhen, 1987) inhibits the activity of glyceraldehyde-3-phosphate dehydrogenase in chondrocytes, resulting in disruption of glycolysis and eventually in cell death. The progressive loss of chondrocytes results in histological and morphological changes of the articular cartilage, closely resembling those seen in osteoarthritis patients.
The osteoarthritis was induced in 200 g male Sprague Dawley rats. […]
Typically, during disease progression, there was an inflammation period of 0-7 days post-intra-articular injection followed by progressive degeneration of the cartilage and subchondral bone from days 14-55. […] Tactile allodynia was measured via von Frey assay, hind limb paw weight distribution was monitored using an incapacitence tester (Columbus Instruments, Columbus, OH, USA) and hind limb grip strength was measured using a grip strength meter (Columbus Instruments, Columbus, OH, USA). […] Hind paw weight distribution was determined by placing rats in a chamber so that each hind paw rests on a separate force plate of the incapacitence tester. The force exerted by each hind limb (measured in grams) is averaged over a 3 second period. Three measurements were taken for each rat, and the change in hind paw weight distribution calculated. […]

[8] = molecular target: T1, hCB1; experiment: Radioligand binding assay, hCB1; details: Table C
[9] = test system: male Sprague-Dawley rats, STZ-induced PDPN; experiment: Streptozotocin-induced painful diabetic peripheral neuropathy (PDPN) model; type: in vivo, rat; details: 10 mg/kg orally in 0.5% methylcellulose; 1, 4 and 6 hours post-dosing; FIG. 9, FIG. 10
Protocol: Male Sprague-Dawley rats were injected intraperitoneally with 50 mg/kg of streptozotocin (STZ) in sodium citrate buffer. 10% sucrose water was provided ad libitum for the first 48 hours post-STZ followed by regular drinking water. Rats were monitored once weekly for blood glucose levels and body weights. Development of tactile allodynia over time was analyzed using Von Frey filaments and a 50% withdrawal threshold was determined using Dixon's up-down procedure. […] Tactile allodynia was evaluated at 1, 4 and 6 hours post-dosing.

T1 sequence (P21554 whole entry): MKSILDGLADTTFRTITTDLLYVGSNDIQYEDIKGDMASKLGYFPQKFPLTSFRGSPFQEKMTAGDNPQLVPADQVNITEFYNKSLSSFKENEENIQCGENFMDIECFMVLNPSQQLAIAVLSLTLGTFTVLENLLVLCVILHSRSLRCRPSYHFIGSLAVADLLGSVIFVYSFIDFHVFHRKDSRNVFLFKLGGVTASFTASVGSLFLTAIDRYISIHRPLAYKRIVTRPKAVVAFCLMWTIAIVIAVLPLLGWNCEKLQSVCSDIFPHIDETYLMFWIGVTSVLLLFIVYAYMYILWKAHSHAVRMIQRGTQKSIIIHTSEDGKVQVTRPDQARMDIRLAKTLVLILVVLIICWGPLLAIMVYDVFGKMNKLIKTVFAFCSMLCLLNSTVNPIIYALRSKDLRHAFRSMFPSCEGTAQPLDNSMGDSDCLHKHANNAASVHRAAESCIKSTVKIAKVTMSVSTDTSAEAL

## CNC(=O)[C@@H](NC(=O)c1nn(-c2cnccn2)c2c1C[C@H]1C[C@@H]21)C(C)(C)C [Compound 667, (1aR,5aR)-2-Pyrazin-2-yl-1a,2,5,5a-tetrahydro-1H-2,3-diaza-cyclopropa[a]pentalene-4-carboxylic acid [2,2-dimethyl-1-((S)-methylcarbamoyl)-propyl]-amide]
[1]
  EC50: 145 nM
[2]
  EC50: 195 nM
[3]
  EC50: 0.3 nM
[4]
  EC50: 1.53 nM

## CC(C)(CO)NC(=O)c1nn(-c2ccc(F)cc2F)c2c1C[C@H]1C[C@@H]21 [Compound 493, (1aR,5aR)-2-(2,4-Difluoro-phenyl)-1a,2,5,5a-tetrahydro-1H-2,3-diaza-cyclopropa[a]pentalene-4-carboxylic acid (2-hydroxy-1,1-dimethyl-ethyl)-amide]
[5]
  Time of maximum efficacy post-dosing: 1 h
[5]; von Frey 30, 60 and 180 minutes after dosing
  Paw withdrawal threshold (PWT) in comparison with vehicle and gabapentin: increase in paw withdrawal threshold (PWT)
[6]
  Paw withdrawal threshold (PWT) in comparison with the vehicle: increase in paw withdrawal threshold (PWT)
[7]
  Paw withdrawal threshold (PWT) in comparison with vehicle: Increase in paw withdrawal threshold (PWT)

## CNC(=O)[C@@H](NC(=O)c1nn(-c2c[n+]([O-])ccn2)c2c1C[C@@H]1C[C@H]21)C(C)(C)C [Compound 701, (1aS,5aS)-2-(4-Oxy-pyrazin-2-yl)-1a,2,5,5a-tetrahydro-1H-2,3-diaza-cyclopropa[a]pentalene-4-carboxylic acid ((S)-2,2-dimethyl-1-methylcarbamoyl-propyl)-amide]
[8]
  Ki: 105 nM

## CC(C)(NC(=O)c1nn(-c2c[n+]([O-])ccn2)c2c1C[C@@H]1C[C@H]21)C(F)(F)F [Compound 919, (1aS,5aS)-2-(4-Oxy-pyrazin-2-yl)-1a,2,5,5a-tetrahydro-1H-2,3-diaza-cyclopropa[a]pentalene-4-carboxylic acid (2,2,2-trifluoro-1,1-dimethyl-ethyl)-amide]
[9]
  Analgesic efficacy (tactile allodynia, 50% withdrawal threshold): robust and sustained analgesic efficacy over 6 hours
[3]
  EC50: 0.2 nM
[4]
  EC50: 2.35 nM

## CC(C)(CO)NC(=O)c1nn(-c2ccc(Cl)cn2)c2c1C[C@H]1C[C@@H]21 [Compound 151, (1aR,5aR)-2-(5-Chloro-pyridin-2-yl)-1a,2,5,5a-tetrahydro-1H-2,3-diaza-cyclopropa[a]pentalene-4-carboxylic acid (2-hydroxy-1,1-dimethyl-ethyl)-amide]
[2]
  EC50: 72500 nM
[3]
  EC50: 3.83 nM
[4]
  EC50: 92.1 nM
